We go through three molecules from ChEMBL document CHEMBL1201862, “PubChem BioAssay data set” (2004).

Each structure is given as a SMILES string. Calls of active or inactive are those of the source. Where only a bound is given, the exact number is not on record here.

For experiment [1], the target named is Heat shock protein HSP 90-alpha (Homo sapiens, UniProt P07900). In kind it is functional, organism-based.
The target in another experiment is Beta Lactamase (Pseudomonas aeruginosa, UniProt Q932Y6). Description: BLA reporter interference, concentration series – BLA reporter cells, FRET fluorescence, artefact control for TLR9-MyD88 binding inhibitor project, dose response (AID 588341).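 Note: cell based assay in CHO-K1 cells stably expressing beta-lactamase.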 In kind it is cell-based.
Experiment [2] has as its target Glucose-6-phosphate 1-dehydrogenase (Homo sapiens, UniProt P11413). Description: inhibition of Homo sapiens G6PD, dose series – biochemical, fluorescence, selectivity assay for P. falciparum G6PD inhibitor project, dose response (AID 504792). In kind it is functional.
The test system of experiment [3] is Streptococcus sp. 'group A'. The experiment can be described thus: Streptococcus pyogenes SK(-)GAS viability under kanamycin – luminescence, BacTiterGlo, confirmation, counter-screen for streptokinase expression inhibitor project, dose response (AID 1900). In kind it is functional, organism-based.
The test system of the next experiment is Streptococcus. Description: GAS UMAA2166 growth inhibition – luminescence, BacTiterGlo, counter-screen for streptokinase expression inhibitor project, dose response (AID 1915).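 Note: potency for reduction of bacterial viability or growth.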 In kind it is functional, organism-based. On the technique in general: Counterscreens check selectivity or assay interference.
For the next experiment, the system named is CHO. The experiment can be described thus: CHO cell viability loss, potency – luminescence, cytotoxicity control for TLR9-MyD88 binding inhibitor project, dose response (AID 588339).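 Note: CHO cells stably coexpressing TLR9 and MyD88 fusions from primary screen; compound exposure lasted 48 hours before viability readout.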 In kind it is functional, cell-based, hamster. The settings on record: Cricetulus griseus.
The nature of experiment [4]: Trypanosoma cruzi growth suppression in host cells – NIH3T3 host cells, beta-gal luminescence, confirmation (AID 2044).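 Note: intracellular parasites grown in NIH/3T3 mouse fibroblasts as host cells; luminescent beta-galactosidase reporter signal from transgenic T. cruzi replicating inside host cells; inhibitors lower the luminescence signal.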 In kind it is functional, cell-based.
A short description of experiment [5]: NIH3T3 cell viability loss – ATP luminescence, mouse fibroblasts, counter-screen, dose response (AID 2010).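 Note: cells exposed to compound for about 90 hours before reading.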 In kind it is functional, cell-based.
Another experiment concerns the target Melanocortin receptor 4 (Homo sapiens, UniProt P32245). Description: inhibitors of MC4R cAMP signaling – cell-based, TR-FRET, biased antagonists, dose response (AID 602298).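 Note: antagonist potency against agonist-stimulated cAMP production.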 In kind it is functional. (In general: TR-FRET usually uses a lanthanide donor and a delayed reading to cut background.)
A short description of experiment [6]: cAMP pathway inhibition in counterscreen cell line – TR-FRET cAMP detection, counter-screen for MC4R biased antagonist project, dose response (AID 602305).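 Note: U2OS cells stimulated with forskolin near its EC80 as the cAMP inducer; potency is for inhibition of forskolin-stimulated cAMP signaling.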 In kind it is functional, cell-based.
For a further experiment, the target named is T1, Streptokinase A (Streptococcus pyogenes serotype M1, UniProt P10520).
T1 sequence (P10520 whole entry): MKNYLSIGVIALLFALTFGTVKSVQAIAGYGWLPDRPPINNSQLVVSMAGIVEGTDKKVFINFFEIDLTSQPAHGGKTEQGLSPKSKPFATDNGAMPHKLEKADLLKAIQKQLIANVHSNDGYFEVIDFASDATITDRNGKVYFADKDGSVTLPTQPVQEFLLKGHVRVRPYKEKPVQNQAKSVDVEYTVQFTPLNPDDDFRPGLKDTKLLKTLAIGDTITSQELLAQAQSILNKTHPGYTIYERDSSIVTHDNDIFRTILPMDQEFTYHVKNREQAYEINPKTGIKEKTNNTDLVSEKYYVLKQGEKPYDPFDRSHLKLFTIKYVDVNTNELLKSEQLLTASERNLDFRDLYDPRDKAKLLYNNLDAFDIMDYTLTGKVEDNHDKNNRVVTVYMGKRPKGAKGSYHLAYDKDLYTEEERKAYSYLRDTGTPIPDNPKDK
Description: viability-normalized secreted streptokinase activity reduction – plasminogen activation absorbance, OD405, dose response (AID 1914).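 Note: secreted streptokinase activity via plasminogen activation per viability signal from cell pellet.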 In kind it is functional, Streptococcus pyogenes M1 GAS.

The target in experiment [7] is Mitogen-activated protein kinase kinase kinase kinase 2 (Homo sapiens, UniProt Q12851). In kind it is functional.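 Note: measured as one member of a kinome-wide kinase panel, with MAP4K2 as the panel entry.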
Experiment [8] deals with Platelet-derived growth factor receptor beta (Homo sapiens, UniProt P09619). In kind it is functional.
Experiment [9] deals with Proto-oncogene tyrosine-protein kinase receptor Ret (Homo sapiens, UniProt P07949). In kind it is functional.
Experiment [10] addresses Casein kinase I isoform alpha (Homo sapiens, UniProt P48729). In kind it is functional.
In experiment [11] the target is Leukocyte tyrosine kinase receptor (Homo sapiens, UniProt P29376). The experiment can be described thus: Navigating the Kinome. Panel member name: LTK. In kind it is functional.
The target in experiment [12] is Serine/threonine-protein kinase TAO1 (Homo sapiens, UniProt Q7L7X3). In kind it is functional.
Experiment [13] deals with Serine/threonine-protein kinase D3 (Homo sapiens, UniProt O94806). In kind it is functional.
Chain of Serine/threonine-protein kinase D3 (O94806 whole entry): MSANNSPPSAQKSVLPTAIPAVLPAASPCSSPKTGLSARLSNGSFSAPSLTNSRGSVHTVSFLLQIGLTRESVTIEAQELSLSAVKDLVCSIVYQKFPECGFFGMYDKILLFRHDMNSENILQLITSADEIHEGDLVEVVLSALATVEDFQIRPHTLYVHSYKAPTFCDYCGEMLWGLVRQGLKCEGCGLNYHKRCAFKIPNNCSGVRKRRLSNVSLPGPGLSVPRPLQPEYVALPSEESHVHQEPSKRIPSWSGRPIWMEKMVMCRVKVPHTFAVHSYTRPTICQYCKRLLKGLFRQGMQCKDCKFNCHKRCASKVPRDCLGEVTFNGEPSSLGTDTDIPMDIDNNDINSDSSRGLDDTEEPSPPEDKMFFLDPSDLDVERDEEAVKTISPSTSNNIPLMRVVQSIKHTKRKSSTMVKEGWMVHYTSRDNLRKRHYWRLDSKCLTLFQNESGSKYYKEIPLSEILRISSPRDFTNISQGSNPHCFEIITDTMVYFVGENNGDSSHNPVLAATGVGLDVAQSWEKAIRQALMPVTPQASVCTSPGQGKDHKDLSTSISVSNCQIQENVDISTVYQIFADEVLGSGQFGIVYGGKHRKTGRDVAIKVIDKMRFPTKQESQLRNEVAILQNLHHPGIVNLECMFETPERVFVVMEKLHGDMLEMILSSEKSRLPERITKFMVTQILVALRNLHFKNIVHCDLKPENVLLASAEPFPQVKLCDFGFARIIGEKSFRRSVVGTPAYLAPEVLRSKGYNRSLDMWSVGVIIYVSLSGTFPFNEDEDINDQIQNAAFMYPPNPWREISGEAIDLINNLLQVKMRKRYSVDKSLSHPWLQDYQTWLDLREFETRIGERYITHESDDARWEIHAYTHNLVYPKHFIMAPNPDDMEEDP
The target of experiment [14] is Mitogen-activated protein kinase kinase kinase kinase 4 (Homo sapiens, UniProt O95819). In kind it is functional.
For the next experiment, the target named is Aurora kinase A (Homo sapiens, UniProt O14965). In kind it is functional.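 Note: value from the Navigating the Kinome kinase panel profiling, panel entry STK6.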
Chain of Aurora kinase A (O14965 whole entry): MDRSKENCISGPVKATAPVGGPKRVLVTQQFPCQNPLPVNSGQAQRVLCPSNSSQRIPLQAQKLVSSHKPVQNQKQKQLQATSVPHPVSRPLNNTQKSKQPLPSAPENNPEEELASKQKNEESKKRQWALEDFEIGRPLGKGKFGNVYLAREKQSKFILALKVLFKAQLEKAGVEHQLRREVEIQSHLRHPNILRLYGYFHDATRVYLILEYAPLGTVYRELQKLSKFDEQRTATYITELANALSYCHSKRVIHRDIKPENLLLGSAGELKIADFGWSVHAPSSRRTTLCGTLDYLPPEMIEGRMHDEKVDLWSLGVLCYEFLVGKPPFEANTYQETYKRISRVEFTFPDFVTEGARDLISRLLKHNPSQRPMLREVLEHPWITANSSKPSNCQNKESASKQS
The target in experiment [15] is Leucine-rich repeat serine/threonine-protein kinase 2 (Homo sapiens, UniProt Q5S007). In kind it is functional.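 Note: value from a broad kinome-wide panel profiling study in which LRRK2 was one of the kinases tested.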
For experiment [16], the target named is Dual specificity protein kinase CLK4 (Homo sapiens, UniProt Q9HAZ1). In kind it is functional.
Experiment [17] concerns the target Dual specificity tyrosine-phosphorylation-regulated kinase 1A (Homo sapiens, UniProt Q13627). In kind it is functional.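 Note: measured against DYRK1A as one member of a broad kinome profiling panel.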
Experiment [18] concerns the target Tyrosine-protein kinase receptor TYRO3 (Homo sapiens, UniProt Q06418). In kind it is functional.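 Note: TYRO3 value obtained as one member of a kinome-wide profiling panel.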
Experiment [19] deals with Glycogen synthase kinase-3 beta (Homo sapiens, UniProt P49841). In kind it is functional.
Chain of Glycogen synthase kinase-3 beta (P49841 whole entry): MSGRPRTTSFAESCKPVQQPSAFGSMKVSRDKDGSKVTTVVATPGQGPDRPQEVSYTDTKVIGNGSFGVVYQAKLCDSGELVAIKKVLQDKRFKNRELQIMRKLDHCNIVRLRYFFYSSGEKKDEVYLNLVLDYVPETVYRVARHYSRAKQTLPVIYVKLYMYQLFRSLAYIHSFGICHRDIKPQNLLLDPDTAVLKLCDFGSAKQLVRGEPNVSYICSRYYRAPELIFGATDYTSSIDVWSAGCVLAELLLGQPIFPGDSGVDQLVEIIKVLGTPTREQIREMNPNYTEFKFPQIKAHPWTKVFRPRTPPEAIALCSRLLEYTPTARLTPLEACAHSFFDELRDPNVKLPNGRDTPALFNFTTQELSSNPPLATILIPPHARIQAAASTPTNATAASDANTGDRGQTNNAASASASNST
In experiment [20] the target is Tyrosine-protein kinase JAK2 (Homo sapiens, UniProt O60674). In kind it is functional.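 Note: JAK2 tested as one member of a kinase panel.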
For experiment [21], the target named is Dual specificity protein kinase CLK2 (Homo sapiens, UniProt P49760). In kind it is functional.
Experiment [22] addresses cAMP-dependent protein kinase catalytic subunit alpha (Homo sapiens, UniProt P17612). In kind it is functional.
Experiment [23] concerns the target Cyclin-dependent kinase 7 (Homo sapiens, UniProt P50613). In kind it is functional.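 Note: value comes from a kinome-wide kinase profiling panel in which CDK7 is one member.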
The target of experiment [24] is Death-associated protein kinase 3 (Homo sapiens, UniProt O43293). In kind it is functional.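 Note: measured as one member of a kinome-wide profiling panel.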
Experiment [25] has as its target Vascular endothelial growth factor receptor 2 (Homo sapiens, UniProt P35968). In kind it is functional.
For experiment [26], the target named is Dual specificity tyrosine-phosphorylation-regulated kinase 1B (Homo sapiens, UniProt Q9Y463). The experiment can be described thus: Navigating the Kinome. Panel member name: DYRK1B. In kind it is functional.
Experiment [27] concerns the target Cyclin-dependent kinase 9 (Homo sapiens, UniProt P50750). In kind it is functional.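 Note: value from the CDK9 entry of a kinome-spanning kinase panel.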
The target of experiment [28] is Serine/threonine-protein kinase PAK 4 (Homo sapiens, UniProt O96013). In kind it is functional.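 Note: value obtained within a kinome profiling panel in which PAK4 was one of the panel members.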
Experiment [29] deals with Serine/threonine-protein kinase TBK1 (Homo sapiens, UniProt Q9UHD2). The experiment can be described thus: Navigating the Kinome. Panel member name: TBK1. In kind it is functional.
The target of experiment [30] is Inhibitor of nuclear factor kappa-B kinase subunit epsilon (Homo sapiens, UniProt Q14164). Description: Navigating the Kinome. Panel member name: IKBKE. In kind it is functional.
Experiment [31] deals with cAMP-dependent protein kinase catalytic subunit PRKX (Homo sapiens, UniProt P51817). In kind it is functional.
Experiment [32] has as its target Vascular endothelial growth factor receptor 1 (Homo sapiens, UniProt P17948). In kind it is functional.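 Note: measured within a kinome-wide profiling panel, FLT1 as the panel member.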
For experiment [33], the target named is Macrophage colony-stimulating factor 1 receptor (Homo sapiens, UniProt P07333). In kind it is functional.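 Note: value comes from the Navigating the Kinome screening panel, CSF1R member.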
Experiment [34] addresses Fibroblast growth factor receptor 1 (Homo sapiens, UniProt P11362). In kind it is functional.
In experiment [35] the target is Cyclin-dependent kinase 5 (Homo sapiens, UniProt Q00535). In kind it is functional.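 Note: CDK5 measured as one member of a kinase profiling panel.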
Experiment [36] has as its target Platelet-derived growth factor receptor alpha (Homo sapiens, UniProt P16234). The experiment can be described thus: Navigating the Kinome. Panel member name: PDGFRA. In kind it is functional.
Experiment [37] deals with Glycogen synthase kinase-3 alpha (Homo sapiens, UniProt P49840). In kind it is functional.
Experiment [38] addresses Melanin-concentrating hormone receptor 1 (Homo sapiens, UniProt Q99705). The experiment can be described thus: Late-stage fluorescence-based counterscreen for antagonists of the G-protein coupled receptor 7 (GPR7): cell-based dose response assay to identify antagonists of the melanin-concentrating hormone receptor 1 (MCHR1) Set 6. In kind it is functional.
The target of experiment [39] is T2, Neuropeptides B/W receptor type 1 (Homo sapiens, UniProt P48145).
T2 sequence (P48145 whole entry): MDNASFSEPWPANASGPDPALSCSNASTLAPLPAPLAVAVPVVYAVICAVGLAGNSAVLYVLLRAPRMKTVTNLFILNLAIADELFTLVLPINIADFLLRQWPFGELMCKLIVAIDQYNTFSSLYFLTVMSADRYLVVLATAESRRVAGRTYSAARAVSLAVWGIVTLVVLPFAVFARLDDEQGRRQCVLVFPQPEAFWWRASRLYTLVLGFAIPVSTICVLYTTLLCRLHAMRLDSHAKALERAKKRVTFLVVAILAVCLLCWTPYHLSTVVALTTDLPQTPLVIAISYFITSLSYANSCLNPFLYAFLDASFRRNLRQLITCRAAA
Description: human NPBW1 receptor blockade, IC50 – cell-based, fluorescence, dose response, set 6, late-stage follow-up (AID 588583). In kind it is functional.

Chain of Fibroblast growth factor receptor 1 (P11362 whole entry): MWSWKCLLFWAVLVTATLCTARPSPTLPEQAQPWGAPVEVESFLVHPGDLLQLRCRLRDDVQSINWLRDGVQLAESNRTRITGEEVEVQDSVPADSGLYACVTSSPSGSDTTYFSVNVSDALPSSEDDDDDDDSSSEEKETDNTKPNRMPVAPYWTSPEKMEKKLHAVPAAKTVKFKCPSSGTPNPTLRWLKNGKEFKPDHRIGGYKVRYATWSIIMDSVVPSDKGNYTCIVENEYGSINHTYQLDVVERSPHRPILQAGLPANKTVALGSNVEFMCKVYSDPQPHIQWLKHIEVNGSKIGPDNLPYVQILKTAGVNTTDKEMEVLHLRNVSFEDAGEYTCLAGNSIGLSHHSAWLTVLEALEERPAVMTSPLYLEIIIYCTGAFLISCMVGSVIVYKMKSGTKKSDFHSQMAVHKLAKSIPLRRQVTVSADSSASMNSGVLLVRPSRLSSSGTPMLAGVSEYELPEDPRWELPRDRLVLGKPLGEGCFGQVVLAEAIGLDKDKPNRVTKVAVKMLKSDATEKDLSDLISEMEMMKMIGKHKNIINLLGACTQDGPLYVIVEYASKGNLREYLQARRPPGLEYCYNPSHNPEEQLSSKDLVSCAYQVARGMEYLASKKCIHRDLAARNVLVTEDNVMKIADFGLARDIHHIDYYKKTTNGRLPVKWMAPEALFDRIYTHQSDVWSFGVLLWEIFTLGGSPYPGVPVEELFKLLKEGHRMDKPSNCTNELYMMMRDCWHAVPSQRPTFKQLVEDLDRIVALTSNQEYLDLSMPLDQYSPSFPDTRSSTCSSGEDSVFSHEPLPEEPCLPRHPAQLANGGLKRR
Chain of Vascular endothelial growth factor receptor 1 (P17948 whole entry): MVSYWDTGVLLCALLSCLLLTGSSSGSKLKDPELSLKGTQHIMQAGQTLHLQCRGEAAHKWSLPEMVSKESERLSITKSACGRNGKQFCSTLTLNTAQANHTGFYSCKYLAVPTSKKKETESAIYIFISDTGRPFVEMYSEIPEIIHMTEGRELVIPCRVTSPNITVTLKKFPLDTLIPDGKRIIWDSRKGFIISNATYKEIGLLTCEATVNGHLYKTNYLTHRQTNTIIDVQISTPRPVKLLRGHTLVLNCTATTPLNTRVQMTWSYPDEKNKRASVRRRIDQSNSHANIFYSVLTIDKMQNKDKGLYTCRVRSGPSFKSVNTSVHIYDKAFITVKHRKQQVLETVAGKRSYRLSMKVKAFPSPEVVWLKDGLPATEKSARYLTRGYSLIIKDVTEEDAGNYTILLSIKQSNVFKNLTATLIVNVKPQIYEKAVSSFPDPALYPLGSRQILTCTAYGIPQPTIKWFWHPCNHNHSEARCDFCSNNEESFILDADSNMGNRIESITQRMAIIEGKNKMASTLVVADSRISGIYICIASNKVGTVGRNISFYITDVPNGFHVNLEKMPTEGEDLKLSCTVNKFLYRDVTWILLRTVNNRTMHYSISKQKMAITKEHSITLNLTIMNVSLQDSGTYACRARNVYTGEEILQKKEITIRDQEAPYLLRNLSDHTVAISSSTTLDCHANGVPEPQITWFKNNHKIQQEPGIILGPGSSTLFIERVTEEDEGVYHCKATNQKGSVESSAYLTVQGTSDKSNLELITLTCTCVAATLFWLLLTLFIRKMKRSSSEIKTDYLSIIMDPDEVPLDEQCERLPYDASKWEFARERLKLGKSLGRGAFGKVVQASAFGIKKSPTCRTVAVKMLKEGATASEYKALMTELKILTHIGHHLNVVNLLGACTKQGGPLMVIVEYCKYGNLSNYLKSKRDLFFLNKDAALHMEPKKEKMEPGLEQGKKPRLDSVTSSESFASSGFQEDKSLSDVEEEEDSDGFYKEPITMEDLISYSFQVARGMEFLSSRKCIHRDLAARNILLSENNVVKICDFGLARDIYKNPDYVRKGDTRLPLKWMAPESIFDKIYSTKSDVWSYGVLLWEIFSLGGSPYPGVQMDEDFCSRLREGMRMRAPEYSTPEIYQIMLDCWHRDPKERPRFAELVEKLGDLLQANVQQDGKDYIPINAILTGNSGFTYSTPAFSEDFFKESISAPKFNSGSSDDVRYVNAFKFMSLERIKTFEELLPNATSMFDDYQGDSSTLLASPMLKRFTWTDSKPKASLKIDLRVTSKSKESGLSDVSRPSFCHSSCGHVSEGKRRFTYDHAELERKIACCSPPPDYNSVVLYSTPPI
Chain of Cyclin-dependent kinase 9 (P50750 whole entry): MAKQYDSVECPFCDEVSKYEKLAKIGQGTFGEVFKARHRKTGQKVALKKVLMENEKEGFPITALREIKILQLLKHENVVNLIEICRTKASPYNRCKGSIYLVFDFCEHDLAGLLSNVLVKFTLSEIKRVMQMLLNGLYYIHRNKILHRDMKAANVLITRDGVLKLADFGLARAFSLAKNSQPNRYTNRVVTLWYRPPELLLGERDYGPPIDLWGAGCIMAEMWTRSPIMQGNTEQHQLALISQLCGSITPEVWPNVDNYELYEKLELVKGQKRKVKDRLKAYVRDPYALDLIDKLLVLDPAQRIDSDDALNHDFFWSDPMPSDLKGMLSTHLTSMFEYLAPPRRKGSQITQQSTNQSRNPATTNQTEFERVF
Chain of Cyclin-dependent kinase 7 (P50613 whole entry): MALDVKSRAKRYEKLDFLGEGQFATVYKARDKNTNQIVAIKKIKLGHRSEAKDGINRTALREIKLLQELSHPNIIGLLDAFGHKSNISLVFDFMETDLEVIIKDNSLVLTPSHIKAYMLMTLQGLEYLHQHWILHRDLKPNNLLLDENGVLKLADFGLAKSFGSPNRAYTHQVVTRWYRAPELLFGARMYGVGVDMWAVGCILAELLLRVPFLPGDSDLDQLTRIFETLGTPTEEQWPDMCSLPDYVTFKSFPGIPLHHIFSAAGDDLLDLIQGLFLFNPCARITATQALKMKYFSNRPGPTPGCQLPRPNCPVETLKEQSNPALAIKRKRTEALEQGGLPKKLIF
Chain of Casein kinase I isoform alpha (P48729 whole entry, canonical isoform): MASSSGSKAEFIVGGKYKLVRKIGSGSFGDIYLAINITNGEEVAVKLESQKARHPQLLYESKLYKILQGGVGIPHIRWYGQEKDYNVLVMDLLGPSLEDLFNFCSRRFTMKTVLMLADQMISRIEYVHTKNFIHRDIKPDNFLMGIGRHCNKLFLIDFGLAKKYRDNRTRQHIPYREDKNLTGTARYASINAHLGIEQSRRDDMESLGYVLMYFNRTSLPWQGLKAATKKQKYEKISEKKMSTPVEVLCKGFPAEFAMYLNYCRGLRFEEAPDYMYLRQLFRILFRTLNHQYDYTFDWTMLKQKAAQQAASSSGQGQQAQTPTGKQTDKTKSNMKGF

As usually defined, the AC50 is the midpoint of the concentration-response curve, whichever way the signal moves. What is called IC50 is the concentration that gives 50% inhibition. As a reminder, the EC50 is the concentration needed to bring the measured effect to its halfway point. Consider `Cc1ccc(NC(=O)c2cc(N3C(=O)C=CC3=O)ccc2N2CCOCC2)cc1Cl`, for which the AC50 in experiment [1] is < 0.195 µM (active). The IC50 on Beta Lactamase is 9.48 µM (active); in experiment [2] it was 48.1 µM (inactive); in the experiment on CHO it was 1.7 µM (active); on Melanocortin receptor 4, 8.43 µM (active); in experiment [6] it was 28.6 µM (inactive). Besides, the EC50 in experiment [3] was 12 µM (active); in the experiment on Streptococcus, 13.4 µM (active); in experiment [4] it was 2.01 µM (active); in [5], 6.37 µM (active); on Streptokinase A, 6.68 µM (active).
One may read the Ki as a dissociation constant, usually derived from enzyme kinetics or from competition with a known ligand. On to `CC(=O)c1ccccc1-c1ncnc2[nH]ccc12`, for which the Ki in experiment [7] was 25.1 µM (active); in experiment [8], 31.6 µM (active); in [9], 39.8 µM (active); in [10], 50.1 µM (active); in experiment [11], 39.8 µM (active); in experiment [12], 39.8 µM (active). Further, the Ki was 39.8 µM (active) in experiment [13]; 50.1 µM (active) in [14]; > 63.1 µM (inactive) at Aurora kinase A; 12.6 µM (active) in experiment [15]; 2.51 µM (active) in experiment [16]; 20 µM (active) in experiment [17]. Further, the inhibitory constant (Ki) in experiment [18] was 63.1 µM (active); in experiment [19], 63.1 µM (active); in [20], 50.1 µM (active); in experiment [21], 20 µM (active); in experiment [22] it was 15.8 µM (active); in experiment [23] it was 63.1 µM (active). Besides, the Ki in [24] is 63.1 µM (active); in experiment [25], 15.8 µM (active); in experiment [26] it was 20 µM (active); in [27], 50.1 µM (active); in experiment [28], 50.1 µM (active); in [29], 63.1 µM (active). Moreover, the Ki in experiment [30] is 100 µM (active); in [31], 39.8 µM (active); in experiment [32], 39.8 µM (active); in experiment [33], 63.1 µM (active); in experiment [34] it was 63.1 µM (active); in [35] it was 50.1 µM (active). The Ki in [36] was 31.6 µM (active); in experiment [37] it was 63.1 µM (active).
For `O=c1c(-c2cccc(F)c2)c(Br)cnn1Cc1cccc2ccccc12`, the IC50 in [38] and in experiment [39] was 0.533 µM (active) each time.
